Experimental data published in patent publication US12601742B2, “Methods and materials for treating endometrial cancer by assessing combinations of mutations and expression levels” (Mayo Foundation for Medical Education and Research, priority 2020, dated 2026).

How the values were obtained:
HEC-1B cell line = experiment: MTT cell viability assay and synergy assessment, HEC-1B; format: cell-based; settings: constant ratio, 72 hours; for combinatory effect of carboplatin with GSK2141795 (cell viability): simultaneous exposure
Experimental: (§1) HEC-1B (Type I) and ARK-2 (Type II), platinum-insensitive EC cell lines, were used in this study. Both cell lines were cultured in DMEM (Dulbecco's Modified Eagle's Medium) media containing 10% FBS, 100 μg/mL streptomycin, 100 units/mL penicillin, and 2 mM L-glutamine. Cells were maintained in incubator at 37° C. in an atmosphere containing 5% CO2. Three thousand cells/well were seeded in triplicate in 96-well plates and cells were treated with increasing concentrations of panobinostat, GSK2141795, and carboplatin for 72 hours, respectively. CellTiter 96® Aqueous One Solution Cell Proliferation Assay was performed according to the manual to assess the half maximum inhibitory concentration (IC50). Constant ratio studies were carried out to investigate the combinatory effect of carboplatin with panobinostat and GSK2141795 in both HEC-1B and ARK-2 cell lines.

ARK-2 cell line = experiment: MTT cell viability assay and synergy assessment, ARK-2; format: cell-based; settings: constant ratio, 72 hours; for combinatory effect of carboplatin with GSK2141795 (cell viability): ARK-2, simultaneous exposure
Experimental: as §1

N.N.O=C([O-])C1(C(=O)[O-])CCC1.[Pt+2] [carboplatin]
synergism: combinatory effect of carboplatin with GSK2141795 (cell viability) (HEC-1B cell line) | combinatory effect of carboplatin with panobinostat (cell viability) (HEC-1B cell line; varying concentrations) | combinatory effect of carboplatin with GSK2141795 (cell viability) (ARK-2 cell line) | combinatory effect of carboplatin with panobinostat (cell viability) (ARK-2 cell line; ARK-2, varying concentrations)

Cn1ncc(Cl)c1-c1cc(C(=O)N[C@H](CN)Cc2ccc(F)c(F)c2)oc1Cl [GSK2141795]
synergism: combinatory effect of carboplatin with GSK2141795 (cell viability) (HEC-1B cell line) | combinatory effect of carboplatin with GSK2141795 (cell viability) (ARK-2 cell line)
